Values of other authors in US9068996B2, “Analyte detection method” (SPHERE MEDICAL LIMITED, priority 2010, dated 2015).
Read-outs that look alike come from different tables or passages of the source.

Details: for average blood propofol concentration required: patients

CC(C)c1cccc(C(C)C)c1O [propofol, 2,6-di-isopropylphenol]
Blood propofol concentration at which 50% of patients (EC50) were awake (after surgery, awake): 1.07 µg/mL | Blood propofol concentration at which 50% of patients (EC50) were oriented (after surgery, oriented): 0.95 µg/mL | average blood propofol concentration required (major surgery): 4.05 ± 1.01 µg/mL | average blood propofol concentration required (non-major surgery): 2.97 ± 1.07 µg/mL
